The values below come from patent US4229452A, “Treatment of inflammatory disorders with 4-trifluoromethylimidazo[1,2-a]quinoxaline” (Westwood Pharmaceuticals, Inc., priority 1979, dated 1980).

Data set [1] deals with carrageenin-induced paw edema. The data set can be described thus: carrageenin-induced paw edema test in the rat. It counts as in vivo, rat (Male Charles River). The following applies: for inhibition in vivo at 32 mg/kg: 32 mg/kg po; for inhibition in vivo at 64 mg/kg: 64 mg/kg po; for inhibition in vivo at 128 mg/kg: 128 mg/kg po; for ED30: calculated from the dose-response line; for inhibition in vivo at 16 mg/kg: 16 mg/kg po; for inhibition in vivo at 8 mg/kg: 8 mg/kg po; for reduction of carrageenin-induced edema / anti-edema activity: result in words. As to the method: Compounds of the present invention were screened in the carrageenin-inducedpaw edema test in the rat. Acetylsalicylic acid was included in the study for reference comparison.
The method employed was the carrageenin edema test [Winter, C. A., Risley, E. A. and Nuss, G. W., Proc. Soc. exp. Biol. Med. 111:544(1962) and Halperin, B. N. and Briot, M., Arch Int. Pharmacody N. 82:247(1950)].
(§1) Male Charles River Rats weighing 145 to 180 g. were employed in the study. Food was withheld for 18 hours before the start of the test, while water was withheld only during the test. Experimental drugs with the desired dose in 3 ml. distilled water (Tween 80)/100 g. body weight were administered orally as suspensions by stomach tube. Control animals, those not receiving drugs, were given the same volume of vehicle by the same route of administration. To induce inflammation, the rear paw was injected into the plantar surface with 0.1 ml. of a 1% carrageenin solution in 0.9% saline. The right paw was also injected with 0.1 ml. of a 0.9% saline solution. At the time of sacrifice, the animals were killed by chloroform. The hind paws were rapidly amputated at tarsocrural joint and weighed on an analytical balance. In all cases the drugs were administered one hour before the paw injections and the sacrifice was performed three hours after the carrageenin injection. The difference in weight (g/100 b.w.) between the carrageenin and the saline injected paws was recorded as the degree of edema.
A comparison of the effectiveness of the test compounds and the standard reference agent, acetylsalicylic acid, in inhibiting edema resulting from the injection of carrageenin is recorded in the following Table XI.
It should be noted that ED30 refers to that dose which inhibits carrageenin-induced paw edema in 30% of the animals in the test group.

The nature of data set [2]: side-effects noted in the carrageenin-induced paw edema test. Format: in vivo. The following applies: rat; for Side-Effects Noted: rats died: 128 mg/kg po. The protocol:
as §1

SMILES strings stand for the structures.

In data set [1], `CC(=O)Oc1ccccc1C(=O)O` [ASPIRIN, acetylsalicylic acid, reference compound] came in with an inhibition in vivo at 32 mg/kg of 19%, an inhibition in vivo at 64 mg/kg of 32.5% and an inhibition in vivo at 128 mg/kg of 41%. The same compound returned an inhibition in vivo at 256 mg/kg in data set [1] (256 mg/kg po) of 62%. Besides, the ED30 in data set [1] (po) is 59.5 mg/kg. In addition, the “Side-Effects Noted” value in data set [2] (po) is “NONE”.

For `CC(C)Cc1nc2ccccc2n2ccnc12`, in data set [1], the inhibition in vivo at 16 mg/kg amounted to 0%, the inhibition in vivo at 32 mg/kg was found to be 25%, at 64 mg/kg the inhibition in vivo was 23% and the inhibition in vivo at 128 mg/kg came to 36%. For the same compound, the ED30 in data set [1] (po) is approximately 70 mg/kg.

In data set [1], `CCCCCc1nc2ccccc2n2ccnc12` [Compound 114] displayed an inhibition in vivo at 64 mg/kg of 5% and an inhibition in vivo at 128 mg/kg of 23%. Besides, the ED30 in data set [1] (po) was more than 128 mg/kg. The “Side-Effects Noted” value in data set [2] (po) is given as “NONE”.

For the compound `CCCCCCCCCc1nc2ccccc2n2ccnc12` [Compound 118], the inhibition in vivo at 128 mg/kg in data set [1] was 0%. Moreover, the ED30 in data set [1] (po) is more than 128 mg/kg. Further, the “Side-Effects Noted” value in data set [2] (po) is on record as “NONE”.

Turning to `CCCCCCCCc1nc2ccccc2n2ccnc12` [Compound 117], the inhibition in vivo at 128 mg/kg in data set [1] is 0%. In addition, the ED30 in data set [1] (po) is more than 128 mg/kg. Also, the “Side-Effects Noted” value in data set [2] (po) is “NONE”.

The compound `C(=Cc1nc2ccccc2n2ccnc12)c1ccccc1` displayed an inhibition in vivo at 128 mg/kg in data set [1] of 0%. The ED30 in data set [1] (po) was more than 128 mg/kg. For the same compound, the “Side-Effects Noted” value in data set [2] (po) is recorded as “NONE”.

Turning to `CCCCCCCCCCCCCCCCCc1nc2ccccc2n2ccnc12` [Compound 120], in data set [1], the inhibition in vivo at 64 mg/kg turned out to be 0% and the inhibition in vivo at 128 mg/kg stood at 5%. In data set [1] (po), the ED30 is more than 128 mg/kg. For the same compound, the “Side-Effects Noted” value in data set [2] (po) is reported as “NONE”.

Turning to `CCCCCCc1nc2ccccc2n2ccnc12` [Compound 115], in data set [1], the inhibition in vivo at 64 mg/kg was found to be 0% and the inhibition in vivo at 128 mg/kg was determined as 27%. For the same compound, the ED30 in data set [1] (po) is approximately 128 mg/kg. For the same compound, in data set [2] (po), the “Side-Effects Noted” value was “NONE”.

`c1ccc2c(c1)nc(C1CCC1)c1nccn12`: in data set [1], at 64 mg/kg the inhibition in vivo was 0% and the inhibition in vivo at 128 mg/kg is 64%. For the same compound, in data set [1] (po), the ED30 is approximately 100 mg/kg. Also, in data set [2] (po), the “Side-Effects Noted” value is reported as “Ptosis at 128 mg/kg”.

`CCCCCCCc1nc2ccccc2n2ccnc12` [Compound 116]: the inhibition in vivo at 128 mg/kg in data set [1] amounted to 0%. Also, the ED30 in data set [1] (po) was more than 128 mg/kg. In addition, in data set [2] (po), the “Side-Effects Noted” value is given as “NONE”.

For the compound `c1ccc2c(c1)nc(C1CCCCC1)c1nccn12`, in data set [1], the inhibition in vivo at 64 mg/kg came to 0% and 128 mg/kg produced 60% inhibition in vivo. In data set [1] (po), the ED30 is approximately 100 mg/kg. Moreover, the “Side-Effects Noted” value in data set [2] (po) is “NONE”.

`CCCc1nc2ccccc2n2ccnc12` [Compound 112]: in data set [1], the inhibition in vivo at 64 mg/kg came out at 0% and the inhibition in vivo at 128 mg/kg came to 36%. Moreover, the ED30 in data set [1] (po) was approximately 128 mg/kg.

For `c1ccc(Cc2nc3ccccc3n3ccnc23)cc1`, in data set [1], the inhibition in vivo at 64 mg/kg amounted to 0% and the inhibition in vivo at 128 mg/kg was 0%. For the same compound, the ED30 in data set [1] (po) is more than 128 mg/kg. Besides, the “Side-Effects Noted” value in data set [2] (po) is on record as “NONE”.

In data set [1], `CCCCCCCCCCCCCCCc1nc2ccccc2n2ccnc12` [Compound 119] came in with an inhibition in vivo at 128 mg/kg of 9%. Further, in data set [1] (po), the ED30 is more than 128 mg/kg. In data set [2] (po), the “Side-Effects Noted” value is “NONE”.

For `c1ccc2c(c1)ncc1nccn12` [Compound 109, imidazo[1,2-a]quinoxaline], in data set [1], the inhibition in vivo at 64 mg/kg came to 6% and the inhibition in vivo at 128 mg/kg turned out to be 54%. In addition, the ED30 in data set [1] (po) is approximately 100 mg/kg. The “Side-Effects Noted: rats died” value in data set [2] is recorded as 1/6.

For the compound `FC(F)(F)c1nc2ccccc2n2ccnc12` [Compound 122, 4-trifluoromethylimidazo[1,2-a]quinoxaline], in data set [1], the inhibition in vivo at 8 mg/kg came to 8%, the inhibition in vivo at 16 mg/kg was determined as 29%, the inhibition in vivo at 32 mg/kg was found to be 31% and the inhibition in vivo at 64 mg/kg turned out to be 39%. Moreover, 128 mg/kg produced 44% inhibition in vivo in data set [1]. Also, in data set [1] (po), the “anti-inflammatory activity relative to the ethyl analog” value was “about half”, the ED30 is 35.1 mg/kg and the “reduction of carrageenin-induced edema / anti-edema activity” value is on record as “significant reductions of carrageenin-induced edema without attendant side effects”. Also, the “dose associated with side effects, as multiple of ED30” value in data set [2] (po) is listed as “does not show side effects at several multiples of its ED30”. The “Side-Effects Noted” value in data set [2] (po, listed as CF3) was “NONE and did not produce any obvious untoward side effects”. For the same compound, the “Side-Effects Noted” value in data set [2] (po, listed as trifluoromethyl analog) is “did not produce any side effects even at a dose of 128 mg/kg”. For the same compound, in data set [2] (po, result in words), the therapeutic index result was “very good therapeutic index” and the “toxicity relative to the non-fluorinated analog” value is listed as “less toxic”.

Turning to `CCc1nc2ccccc2n2ccnc12` [Compound 111], the inhibition in vivo at 4 mg/kg in data set [1] (4 mg/kg po) stood at 6%. Also, in data set [1], the inhibition in vivo at 8 mg/kg came to 23%, the inhibition in vivo at 16 mg/kg turned out to be 32%, testing at 32 mg/kg gave an inhibition in vivo of 40% and at 64 mg/kg the inhibition in vivo was 41%. In data set [1], this compound showed an inhibition in vivo at 128 mg/kg of 57%. Further, in data set [1] (po), the “anti-edemic activity relative to acetylsalicylic acid” value is given as “approximately 3 X acetylsalicylic acid” and the ED30 was 20.5 mg/kg. The “reduction of carrageenin-induced edema / anti-edema activity” value in data set [1] (po, listed as CH2 CH3) is “significant reductions of carrageenin-induced edema without attendant side effects”. Moreover, the “reduction of carrageenin-induced edema / anti-edema activity” value in data set [1] (po, listed as ethyl analog) is “strongest anti-edemic activity”. In addition, the selectivity ratio in data set [2] (in vivo, po, read-out: dose associated with side effects, as multiple of ED30) is approximately 3.

With `COCc1nc2ccccc2n2ccnc12` [Compound 125], in data set [1], at 64 mg/kg the inhibition in vivo was 1% and the inhibition in vivo at 128 mg/kg stood at 32%. Moreover, the ED30 in data set [1] (po) was approximately 128 mg/kg.

In data set [1], `Cc1nc2ccccc2n2ccnc12` [Compound 110] returned an inhibition in vivo at 8 mg/kg of 12%, an inhibition in vivo at 16 mg/kg of 28%, an inhibition in vivo at 32 mg/kg of 33% and an inhibition in vivo at 64 mg/kg of 29%. In data set [1], this compound showed an inhibition in vivo at 128 mg/kg of 42%. Further, in data set [1] (po), the ED30 was 40 mg/kg and the “reduction of carrageenin-induced edema / anti-edema activity” value is given as “significant reductions of carrageenin-induced edema without attendant side effects”. Also, the “Side-Effects Noted: rats died” value in data set [2] is given as 1/6.

As for `c1ccc(OCc2nc3ccccc3n3ccnc23)cc1`, in data set [1], the inhibition in vivo at 128 mg/kg turned out to be 0%. For the same compound, in data set [1] (po), the ED30 is more than 128 mg/kg. Besides, the “Side-Effects Noted” value in data set [2] (po) is “NONE”.
